The text below walks through data of PMC2605449, “Modification of carbonic anhydrase II with acetaldehyde, the first metabolite of ethanol, leads to decreased enzyme activity” (BMC Biochemistry, 2008).

For the assay, the target named is T1, recombinant human CA II (carbonic anhydrase isozyme II) (Homo sapiens, UniProt P00918, S2A).
T1 construct: gene CA2; recombinant in E. coli, full length, initiator Met removed, second residue Ser changed to Ala by cloning
The assay can be described thus: end-point titration (Maren) with spectrophotometric colour determination. The class given is biochemical. The following applies: covalent; pretreated […] h at […] °C, […] NaBH3(CN) added after […] h (N-ethyllysine adducts); CO2 substrate, ice-cold.

On to `CC=O` [acetaldehyde], for which the “% reduction in activity at 100 mM” value worked out at 23.7%.
